In publication PMC4618141, “Use of In Vitro and Predictive In Silico Models to Study the Inhibition of Cytochrome P4503A by Stilbenes” (PLoS ONE, 2015):

Target: CYP3A4 (Homo sapiens, UniProt P08684)
Assay: inhibition of testosterone metabolism in Caco-2/TC7 cells (HPLC)

Sequence of CYP3A4 (P08684 2-503): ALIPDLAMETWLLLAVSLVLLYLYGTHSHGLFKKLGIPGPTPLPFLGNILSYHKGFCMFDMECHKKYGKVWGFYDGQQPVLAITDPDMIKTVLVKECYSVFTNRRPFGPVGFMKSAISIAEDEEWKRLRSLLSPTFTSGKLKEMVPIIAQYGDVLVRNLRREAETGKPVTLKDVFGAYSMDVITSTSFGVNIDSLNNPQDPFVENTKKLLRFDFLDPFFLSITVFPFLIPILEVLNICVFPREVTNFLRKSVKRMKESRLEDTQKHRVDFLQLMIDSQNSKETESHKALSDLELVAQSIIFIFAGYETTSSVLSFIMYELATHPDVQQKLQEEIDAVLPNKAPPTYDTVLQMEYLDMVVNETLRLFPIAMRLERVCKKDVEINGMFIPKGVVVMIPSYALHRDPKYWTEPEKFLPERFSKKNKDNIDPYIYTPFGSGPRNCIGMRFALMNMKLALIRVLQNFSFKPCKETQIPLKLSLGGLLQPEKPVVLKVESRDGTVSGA

## Oc1ccc(/C=C/c2cc(O)cc(O)c2)cc1 [Resveratrol, trans-3,4′,5-trihydroxystilbene]
  IC50: < 10 µM
